Our source for the IC50 values is patent US5948798A, “Pyridiniminyl-1,2-benzisoxazoles and -benzisothiazoles” (Hoechst Marion Roussel, Inc., priority 1997, dated 1999).

Counter-ions that a name gives are not always drawn. Like-named read-outs stand apart in the source and are kept apart here.

The target in assay [1] is T1, Monoamine Oxidase B (Rattus norvegicus, UniProt P19643).
T1 construct: serves as the tissue source for mitochondrial monoamine oxidase; from tissue; host or cells: male Wistar rat whole brain minus cerebellum, 18,000 g pellet (P2)
T1 sequence (P19643 1-520): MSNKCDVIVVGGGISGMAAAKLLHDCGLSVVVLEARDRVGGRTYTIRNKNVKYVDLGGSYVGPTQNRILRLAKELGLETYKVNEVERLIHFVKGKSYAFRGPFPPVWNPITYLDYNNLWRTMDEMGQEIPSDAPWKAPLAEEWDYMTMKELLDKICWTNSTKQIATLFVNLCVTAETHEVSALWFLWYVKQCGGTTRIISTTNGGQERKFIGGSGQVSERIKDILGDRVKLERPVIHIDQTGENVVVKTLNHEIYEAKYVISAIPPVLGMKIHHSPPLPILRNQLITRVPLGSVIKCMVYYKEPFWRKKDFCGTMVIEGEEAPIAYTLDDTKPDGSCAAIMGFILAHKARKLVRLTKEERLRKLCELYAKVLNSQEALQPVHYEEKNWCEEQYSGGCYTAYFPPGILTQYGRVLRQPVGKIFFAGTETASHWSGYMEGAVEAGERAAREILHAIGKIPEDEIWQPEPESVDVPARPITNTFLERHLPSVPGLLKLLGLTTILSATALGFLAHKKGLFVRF
Put plainly: in vitro inhibition of monoamine oxidase assay (monoamine oxidase B). The class given is biochemical, rat (male Wistar, whole brain minus cerebellum). Particulars: rat brain mitochondria, [14C]-phenethylamine 200 μM, pH 7.4, 37° C., 30 min; log-probit. The source says:
(§1) In this assay, a modification of an assay described by M. V. Kindt, et al., Europ.
(§2) Male Wistar rats weighing 150-250 grams were sacrificed and the brains rapidly removed.

Assay [2] addresses T2, Monoamine Oxidase A (Rattus norvegicus, UniProt P21396).
T2 construct: serves as the tissue source for mitochondrial monoamine oxidase; from tissue; host or cells: male Wistar rat whole brain minus cerebellum, 18,000 g pellet (P2)
T2 sequence (P21396 1-526): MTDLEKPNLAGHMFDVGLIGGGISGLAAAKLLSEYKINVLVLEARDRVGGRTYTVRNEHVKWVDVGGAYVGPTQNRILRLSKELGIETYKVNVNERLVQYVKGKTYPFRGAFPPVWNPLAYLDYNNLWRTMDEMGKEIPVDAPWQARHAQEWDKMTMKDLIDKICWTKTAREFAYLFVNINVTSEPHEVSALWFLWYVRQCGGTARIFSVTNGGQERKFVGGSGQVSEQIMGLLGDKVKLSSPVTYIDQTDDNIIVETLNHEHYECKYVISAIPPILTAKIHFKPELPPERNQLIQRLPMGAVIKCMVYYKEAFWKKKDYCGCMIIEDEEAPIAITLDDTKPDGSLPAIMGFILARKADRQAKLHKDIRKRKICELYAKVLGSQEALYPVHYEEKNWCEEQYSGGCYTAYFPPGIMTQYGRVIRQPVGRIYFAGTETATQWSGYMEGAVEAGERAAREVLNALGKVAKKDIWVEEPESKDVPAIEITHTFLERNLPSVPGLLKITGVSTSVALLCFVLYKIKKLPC
Put plainly: in vitro inhibition of monoamine oxidase assay (monoamine oxidase A). The class given is biochemical, rat (male Wistar, whole brain minus cerebellum). Particulars: rat brain mitochondria, [3H]-5-hydroxytryptamine 200 μM, pH 7.4, 37° C., 30 min; log-probit.
Excerpt: as §1, §2

The target in assay [3] is T3, Acetylcholinesterase (Rattus norvegicus, UniProt P37136).
T3 construct: corpora striata dissected free, weighted and homogenized in 19 volumes; from tissue; host or cells: male Wistar rat corpora striata, homogenate
Put plainly: in vitro inhibition of acetylcholinesterase assay. The format is biochemical, rat (male Wistar, corpora striata). As to the method: 1. 0.05M Phosphate Buffer (pH 7.2)
A solution of monobasic sodium phosphate monohydrate (6.85 g) in distilled water (100 mL) is added to a solution of dibasic sodium phosphate heptahydrate (13.4 g) and distilled water (100 mL) until a pH of 7.2 was attained. The solution was diluted 1 to 10 with distilled water.
3. 5,5-Dithiobisnitrobenzoic acid in Buffer
The 0.05M Phosphate Buffer (pH 7.2) was added to 5.5-dithiobisnitrobenzoic acid to a total volume of 100 mL. i.e., a quantity sufficient (gs) to 100 mL.
4. Stock Solution of Drug
A 2 millimolar stock solution of the test drug is prepared in a quantity sufficient of either acetic acid or dimethyl sulfoxide to volume with 5,5-Dithiobisnitrobenzene Acid in Buffer. Stock Solution of Drug is serially diluted (1:10) so that the final cuvette concentration is 10^-4 molar.
Male Wistar rats are decapitated, brains rapidly removed, corpora striata dissected free, weighted and homogenized in 19 volumes (approximately 7 mg protein/mL) of 0.05M phosphate Buffer (pH 7.2) using a Potter-Elvehjem homogenizer. A 25 μl aliquot of this suspension is added to 1 mL of the vehicle or various concentrations of the test drug and preincubated for 10 minutes at 37° C. Enzyme activity is measured with a Beckman DU-50 spectrophotometer with the following software and instrument settings:
6. Cuvettes--2 mL cuvettes using auto 6-sampler;
7. Blank--1 for each substrate concentration;
8. Interval time--15 seconds (15 or 30 seconds for kinetics);
9. Total time--5 minutes (5 to 10 minutes for kinetics);
13. Results--yes (gives slope); and
Reagents are added to the blank and sample cuvettes as follows: […]
Blank 0.8 mL 5.5-Dithiobisnitrobenzoic Acid
0.8 mL Substrate in Buffer
2. Control 0.8 mL 5.5-Dithiobisnitrobenzoic Acid/Enzyme
3. Drug 0.8 mL 5.5-Dithiobisnitrobenzoic Acid/Drug/Enzyme
Blank values are determined for each run to control for non-enzymatic hydrolysis of substrate and these values are automatically subtracted by the Kindata program available on kinetics soft-pac module. This program also calculates the rate of absorbance change for each cuvette.
Substrate concentration is 10 millimolar diluted 1:2 in assay yielding final concentration of 5 millimolar. 5,5-Dithiobisnitrobenzoic acid concentration is 0.5 millimolar yielding 0.25 millimolar final concentration. [formula]
IC50 values are calculated from log-probit analysis

T3 sequence (P37136 32-614): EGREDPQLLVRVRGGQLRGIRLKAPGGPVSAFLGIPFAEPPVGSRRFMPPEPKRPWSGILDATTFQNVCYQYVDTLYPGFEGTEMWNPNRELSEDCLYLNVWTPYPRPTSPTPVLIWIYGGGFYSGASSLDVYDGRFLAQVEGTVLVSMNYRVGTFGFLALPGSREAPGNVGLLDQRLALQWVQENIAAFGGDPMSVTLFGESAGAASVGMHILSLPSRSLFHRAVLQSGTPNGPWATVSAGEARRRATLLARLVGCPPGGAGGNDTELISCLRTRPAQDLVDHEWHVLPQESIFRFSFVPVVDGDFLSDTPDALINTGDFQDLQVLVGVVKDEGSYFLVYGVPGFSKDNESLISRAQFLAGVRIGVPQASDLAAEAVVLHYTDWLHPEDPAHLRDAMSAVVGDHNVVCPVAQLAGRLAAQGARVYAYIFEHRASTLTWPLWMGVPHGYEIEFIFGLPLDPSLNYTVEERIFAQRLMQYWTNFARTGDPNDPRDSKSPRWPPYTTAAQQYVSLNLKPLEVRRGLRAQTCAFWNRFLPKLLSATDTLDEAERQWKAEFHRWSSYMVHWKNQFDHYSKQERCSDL

`CCCn1ccc(=Nc2noc3cc(Cl)ccc23)cc1` [6-Chloro-3-]1-propyl-N-4(1H)pyridiniminyl]-1,2-benzisoxazole hydrochloride]: the figures for the IC50 in assay [1] and in assay [2] were 27.2 µM and 1.65 µM, respectively.

Take `c1ccc(CCCn2ccc(=Nc3noc4ccccc34)cc2)cc1` [3-[1-(3-Phenylpropyl)-N-4(1H)-pyridiniminyl]-1,2-benzisoxazole hydrobromide]: the midpoint of inhibition in assay [3], the IC50, lay at 650 nM.

Regarding `c1ccc(CCn2ccc(=Nc3noc4ccccc34)cc2)cc1` [3-[1-(2-Phenylethyl)-N-4(1H)-pyridiniminyl]-1,2-benzisoxazole hydrobromide], the IC50 (as a rule, the concentration needed to halve the response being measured) in assay [1] was determined as 15.9 µM; in assay [2] it was 3 µM.

Regarding `COc1ccc2c(N=c3ccn(Cc4ccccc4)cc3)noc2c1` [6-Methoxy-3-[1-phenylmethyl-N-4(1H)-pyridiniminyl]-1,2-benzisoxazole hydrobromide], the results for the concentration for half-maximal inhibition (IC50) in assay [1], in assay [2] and in assay [3] were 25.2 µM, 3 µM and 90 nM, respectively.

Regarding `Fc1ccc(Cn2ccc(=Nc3noc4ccccc34)cc2)cc1` [3-[1-(4-Fluorophenyl)methyl-N-4(1H)-pyridiniminyl]-1,2-benzisoxazole hydrobromide], in assay [3] (rat corpora striata homogenate, pH 7.2, acetylthiocholine 5 mM final, 10 min preincubation at 37° C., log-probit, read-out: Inhibition of Acetylcholinesterase Activity IC50), the 50% inhibitory concentration (IC50) was 440 nM.

Consider `c1ccc(Cn2ccc(=Nc3noc4ccccc34)cc2)cc1` [3-[1-Phenylmethyl-N-4(1H)-pyridiniminyl]-1,2-benzisoxazole hydrobromide], for which the IC50 in assay [1] amounted to 33.7 µM; in assay [2], 9 µM; in assay [3], 280 nM.
